Source: PubChem BioAssay AID248 (DTP/NCI, 2004)
“And” between values parts separate entries of the source, which are not always exact repeats. Identical values can stand only once. Toxic doses and inconclusive results are not listed. Rule as the data show it: active = T/C of 150% or more; inactive = T/C below 125%.

Tested on: L1210 leukemia ip in BDF1 mice, survival T/C
Assay: NCI In Vivo Anticancer Drug Screen. Data for tumor model L1210 Leukemia (intraperitoneal) in B6D2F1 (BDF1) mice
Settings: endpoint: mean survival time, higher = longer survival
Summary of the method: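 Antitumor effect is assessed in tumor-bearing animals. Survival in the compound arm is compared with a vehicle-dosed control arm and expressed as their quotient.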

[1] = dose: 100.0 mg/kg/injection, schedule: Q04DX002 (ip), vehicle: saline with Tween-80
[2] = dose: 200.0 mg/kg/injection, schedule: Q04DX002 (ip), vehicle: saline with Tween-80
[3] = dose: 100.0 mg/kg/injection, schedule: Q01DX009 (ip), vehicle: saline with Tween-80
[4] = dose: 200.0 mg/kg/injection, schedule: Q01DX009 (ip), vehicle: saline with Tween-80
[5] = dose: 50.0 mg/kg/injection, schedule: Q01DX009 (ip), vehicle: Klucel (hydroxypropylcellulose) (HPC)
[6] = dose: 100.0 mg/kg/injection, schedule: Q01DX009 (ip), vehicle: Klucel (hydroxypropylcellulose) (HPC)
[7] = dose: 200.0 mg/kg/injection, schedule: Q01DX009 (ip), vehicle: Klucel (hydroxypropylcellulose) (HPC)
[8] = dose: 400.0 mg/kg/injection, schedule: Q04DX002 (ip), vehicle: saline with Tween-80
[9] = dose: 100.0 mg/kg/injection, schedule: Q04DX002 (ip), vehicle: Klucel (hydroxypropylcellulose) (HPC)
[10] = dose: 200.0 mg/kg/injection, schedule: Q04DX002 (ip), vehicle: Klucel (hydroxypropylcellulose) (HPC)
[11] = dose: 100.0 mg/kg/injection, schedule: Q04DX003 (ip), vehicle: Klucel (hydroxypropylcellulose) (HPC)
[12] = dose: 200.0 mg/kg/injection, schedule: Q04DX003 (ip), vehicle: Klucel (hydroxypropylcellulose) (HPC)
[13] = dose: 400.0 mg/kg/injection, schedule: Q04DX003 (ip), vehicle: Klucel (hydroxypropylcellulose) (HPC)
[14] = dose: 100.0 mg/kg/injection, schedule: Q01DX001 (ip), vehicle: saline
[15] = dose: 200.0 mg/kg/injection, schedule: Q01DX001 (ip), vehicle: saline
[16] = dose: 400.0 mg/kg/injection, schedule: Q01DX001 (ip), vehicle: saline
[17] = dose: 100.0 mg/kg/injection, schedule: Q04DX003 (ip), vehicle: saline with Tween-80
[18] = dose: 200.0 mg/kg/injection, schedule: Q04DX003 (ip), vehicle: saline with Tween-80
[19] = dose: 400.0 mg/kg/injection, schedule: Q04DX003 (ip), vehicle: saline with Tween-80
[20] = dose: 100.0 mg/kg/injection, schedule: Q01DX009 (ip), vehicle: saline

Measured: T/C

CC(=O)NCC(O)C(O)C(O)C(/C=N/Nc1ccccc1)=N/Nc1ccccc1 (configuration not stated)
inactive: dose: 50.0 mg/kg/injection, schedule: Q04DX002 (ip), vehicle: saline with Tween-80 88 % of control | [1] 92 % of control | [2] 98 % of control

CCN(CC)C(=S)SCc1ccccc1OC(=O)NC
inactive: dose: 75.0 mg/kg/injection, schedule: Q01DX001 (ip), vehicle: saline 101 % of control | dose: 150.0 mg/kg/injection, schedule: Q01DX001 (ip), vehicle: saline 98 % of control

O=C(COc1ccc(Cl)cc1)Nc1nccs1
inactive: [3] 96 % of control | [4] 89 % of control | dose: 400.0 mg/kg/injection, schedule: Q01DX009 (ip), vehicle: saline with Tween-80 92 % of control

Cc1cc(=O)oc2ccc(OS(C)(=O)=O)cc12
inactive: [5] 90 % of control | [6] 101 % of control | [7] 90 % of control

O=C(c1ccccc1)c1nc2ccccc2s1
inactive: dose: 12.5 mg/kg/injection, schedule: Q01DX005 (ip), vehicle: other 94 % of control | dose: 25.0 mg/kg/injection, schedule: Q01DX005 (ip), vehicle: other 90 % of control | dose: 50.0 mg/kg/injection, schedule: Q01DX005 (ip), vehicle: other 89 % of control | dose: 100.0 mg/kg/injection, schedule: Q01DX005 (ip), vehicle: other 89 % of control | dose: 200.0 mg/kg/injection, schedule: Q01DX005 (ip), vehicle: other 89 % of control

COc1cc(O)c(OC(C)=O)cc1OC
inactive: dose: 100.0 mg/kg/injection, schedule: Q01DX001 (ip), vehicle: gum acacia 97 % of control | dose: 200.0 mg/kg/injection, schedule: Q01DX001 (ip), vehicle: gum acacia 97 % of control | dose: 400.0 mg/kg/injection, schedule: Q01DX001 (ip), vehicle: gum acacia 117 % of control

c1ccc(Nc2ccc(C(c3ccccc3)(c3ccccc3)c3ccccc3)cc2)cc1
inactive: dose: 25.6 mg/kg/injection, schedule: Q04DX002 (ip), vehicle: saline with Tween-80 97 % of control | dose: 64.0 mg/kg/injection, schedule: Q04DX002 (ip), vehicle: saline with Tween-80 94 % of control | dose: 160.0 mg/kg/injection, schedule: Q04DX002 (ip), vehicle: saline with Tween-80 97 % of control | [8] 91 % of control

Oc1ccc(OCc2ccccc2)cc1
inactive: dose: 25.0 mg/kg/injection, schedule: Q01DX009 (ip), vehicle: Klucel (hydroxypropylcellulose) (HPC) 110 % of control | [5] 88 % of control | [6] 100 % of control | dose: 100.0 mg/kg/injection, schedule: Q04DX003 (ip), vehicle: other 103 % of control | dose: 200.0 mg/kg/injection, schedule: Q04DX003 (ip), vehicle: other 102 % of control | dose: 400.0 mg/kg/injection, schedule: Q04DX003 (ip), vehicle: other 93 % of control

CC12CCCCC1C(C(=O)O)CC2 (configuration not stated)
inactive: [1] 105 % of control | [2] 105 % of control | [8] 92 % of control

O=C1CC2CCCC(C1)N2CC1COc2ccccc2O1 (configuration not stated)
inactive: dose: 50.0 mg/kg/injection, schedule: Q04DX002 (ip), vehicle: Klucel (hydroxypropylcellulose) (HPC) 90 % of control | [9] 90 % of control | [10] 93 % of control

CC(=O)OC1OC(C[Se][As](C)C)C(OC(C)=O)C(OC(C)=O)C1OC(C)=O (configuration not stated)
inactive: [11] 104 % of control | [12] 98 % of control | [13] 95 % of control

CCCCC(=O)N/N=C/c1cc(I)cc(I)c1O
inactive: [14] 87 % of control | [15] 89 % of control | [16] 87 % of control

COc1ccc(OC)c(NC(=O)NNC(=O)CNC(=O)Nc2ccc(Cl)c(Cl)c2)c1
inactive: dose: 12.5 mg/kg/injection, schedule: Q01DX009 (ip), vehicle: saline with Tween-80 95 % of control | dose: 25.0 mg/kg/injection, schedule: Q01DX009 (ip), vehicle: saline with Tween-80 95 % of control | dose: 50.0 mg/kg/injection, schedule: Q01DX009 (ip), vehicle: saline with Tween-80 91 % of control and 92 % of control | [3] 88 % of control | [4] 98 % of control

O=C(CBr)c1cc(-c2cccc(I)c2)nc2c(Cl)cc(Cl)cc12
inactive: [17] 101 % of control | [18] 93 % of control | [19] 93 % of control

O=C=Nc1ccccc1-c1ccccc1
inactive: [1] 98 % of control | [2] 98 % of control | [8] 100 % of control

Cc1ccccc1-c1c2ccccc2c2ccccc2[n+]1[O-]
inactive: [5] 101 % of control | [6] 101 % of control | [7] 108 % of control

COc1ccc(C(=O)N/N=C/c2cccc(OC)c2OC)cc1
inactive: dose: 45.0 mg/kg/injection, schedule: Q01DX009 (ip), vehicle: saline 98 % of control | dose: 65.0 mg/kg/injection, schedule: Q01DX009 (ip), vehicle: saline 98 % of control | dose: 85.0 mg/kg/injection, schedule: Q04DX003 (ip), vehicle: saline 93 % of control | [20] 102 % of control | [9] 104 % of control and 105 % of control | dose: 130.0 mg/kg/injection, schedule: Q04DX003 (ip), vehicle: saline 93 % of control | dose: 150.0 mg/kg/injection, schedule: Q01DX009 (ip), vehicle: saline 95 % of control | dose: 175.0 mg/kg/injection, schedule: Q01DX001 (ip), vehicle: saline 104 % of control | dose: 175.0 mg/kg/injection, schedule: Q04DX002 (ip), vehicle: saline 91 % of control | [10] 101 % of control and 104 % of control | dose: 200.0 mg/kg/injection, schedule: Q04DX003 (ip), vehicle: saline 93 % of control | dose: 265.0 mg/kg/injection, schedule: Q01DX001 (ip), vehicle: saline 107 % of control | dose: 265.0 mg/kg/injection, schedule: Q04DX002 (ip), vehicle: saline 102 % of control | dose: 300.0 mg/kg/injection, schedule: Q04DX003 (ip), vehicle: saline 102 % of control | [16] 96 % of control | dose: 400.0 mg/kg/injection, schedule: Q04DX002 (ip), vehicle: saline 96 % of control | dose: 600.0 mg/kg/injection, schedule: Q01DX001 (ip), vehicle: saline 102 % of control | dose: 600.0 mg/kg/injection, schedule: Q04DX002 (ip), vehicle: saline 106 % of control

CS(=O)(=O)Oc1ccccc1N(S(C)(=O)=O)S(C)(=O)=O
inactive: dose: 100.0 mg/kg/injection, schedule: Q01DX001 (ip), vehicle: Klucel (hydroxypropylcellulose) (HPC) 107 % of control | [11] 107 % of control | dose: 200.0 mg/kg/injection, schedule: Q01DX001 (ip), vehicle: Klucel (hydroxypropylcellulose) (HPC) 110 % of control | [12] 107 % of control | dose: 400.0 mg/kg/injection, schedule: Q01DX001 (ip), vehicle: Klucel (hydroxypropylcellulose) (HPC) 104 % of control | [13] 102 % of control

CCOC(=O)C1C(=O)NCC1c1ccccc1 (configuration not stated)
inactive: dose: 50.0 mg/kg/injection, schedule: Q01DX009 (ip), vehicle: saline 94 % of control and 97 % of control | [20] 104 % of control | dose: 200.0 mg/kg/injection, schedule: Q01DX009 (ip), vehicle: saline 108 % of control and 91 % of control

Cc1ccc(NC(=O)C(c2ccc(Cl)cc2)c2ccc(Cl)cc2)cc1
inactive: [9] 96 % of control | [10] 100 % of control | dose: 400.0 mg/kg/injection, schedule: Q04DX002 (ip), vehicle: Klucel (hydroxypropylcellulose) (HPC) 96 % of control

CC1=CCCC(C)(C)C1C=C1C(=O)NC(=S)NC1=O (configuration not stated)
inactive: [5] 92 % of control | [6] 98 % of control | [7] 109 % of control

CC(=O)N(c1ccccc1)c1cc(Cl)cc[n+]1[O-]
inactive: [14] 96 % of control | [15] 96 % of control | [16] 97 % of control

CCOC(=O)C(O)(C(=O)OCC)C1C(=O)c2ccccc2C1=O
inactive: dose: 50.0 mg/kg/injection, schedule: Q04DX003 (ip), vehicle: Klucel (hydroxypropylcellulose) (HPC) 91 % of control | [11] 98 % of control | [12] 99 % of control

COc1cc(C(=O)N/N=C/c2ccc(N(C)C)cc2)cc(OC)c1OC
inactive: [17] 102 % of control | [18] 102 % of control | [19] 89 % of control
